In patent US10369138B2, “Monobactam organic compounds for the treatment of bacterial infections” (Novartis AG, priority 2014, dated 2019):
≈ marks a conversion by molar mass, not a printed value.

Tests used:
E. coli containing KPC-2 = assay: MIC by broth microdilution, E. coli containing KPC-2 (Ec KPC2 Iso); type: cell-based; conditions: Escherichia coli, read-out: Ec KPC2 Iso (MIC), E. coli containing KPC-2 (carbapenemase from Klebsiella pneumoniae)
Protocol: (§1) Bacterial isolates were cultivated from −70° C. frozen stocks by two consecutive overnight passages at 35° C. in ambient air on 5% blood agar (Remel, Lenexa, Kans.). Quality control and P. aeruginosa ATCC 27853) is from the American Type Culture Collection (ATCC; Rockville, Md.) and PAO1 was received from Dr. K. Poole.
Strain NB27273 (BW25113 pspB::Km^r) was obtained from the Keio transposon insertion collection. The strain has the pspB gene replaced by a kanamycin resistance marker (BW25113 pspB::Km^r). This strain was cured of the transposon in pspB via FLP recombinase using published methodology. The resulting strain, BW25113 pspB, was used as a host for multicopy vectors expressing key β-lactamases. Multicopy plasmids directing constitutive expression of β-lactamases were established as follows: Synthetic, codon optimized genes encoding E. coli KPC2 and SHV12 β-lactamases were made by DNA2.0 (Palo Alto, Calif.). Each of the synthetic fragments were designed to contain NotI and NcoI restriction sites at their termini, allowing ligation into a NotI/NcoI digested pET28a(+) derivative for protein expression. […] The codon optimized nucleotide sequences and relevant primer recognition information is shown below:
The PCR products were then digested with XhoI and EcoRI and ligated into similarly digested plasmid pAH63-pstS(BlaP). Plasmid pAH63-pstS(BlaP) is a derivative of plasmid pAH63 (J Bacteriol: 183(21): 6384-6393) made by cloning the TEM-1 (bla) promoter and signal peptide encoding region from plasmid pBAD (J Bacteriol. 1995 July 177(14):4121-30) into plasmid pAH63. This fragment was PCR amplified from pBAD using primer pair E192 (ttca[…]) (SEQ ID NO:13) and E194 ([…]) (SEQ ID NO:14), digested with PstI and BamHI and inserted into similarly digested plasmid pAH63. Therefore, expression of β-lactamases from pAH63-pstS(BlaP) based constructs is constitutive and the signal sequence is provided to direct these proteins to the periplasm. Plasmid pAH63 based vectors are used for insertion into the genome in single copy, however, to provide higher expression levels to allow more sensitive detection of the susceptibility of compounds to the β-lactamases, the expression inserts contained in these vectors were moved to the replicative multicopy vector pBAD-Kan (J Bacteriol. 1995 July 177(14):4121-30). To accomplish this, the inserts encompassing the β-lactamase genes, with the associated TEM promoter and signal sequences, were PCR amplified from their corresponding vectors using primer E269 (ccg[…]) (SEQ ID NO:15) and E202 (aatc[…]) (SEQ ID NO:16) for the KPC2 construct and E204 (aatc[…]) (SEQ ID NO:17) for the SHV12 construct. These fragments were then digested with XbaI and EcoRI, and each was inserted into pBAD18-kan that had been digested with the same enzymes to generate a pair of multicopy vectors expressing KPC2 and SHV12 respectively. These vectors were transformed into BW25113 pspB to generate strains NB27273-CDY0033 (expressing KPC2) and NB27273-CDY0030 (expressing SHV12). The pBAD18-kan vector also contains the TEM promoter region and signal sequence, (but lacks any intact β-lactamase genes) and was transformed into BW25113 pspB using standard protocols to generate the control strain NB27273-CDY0026. Expression of the β-lactamases was confirmed by verifying decreased susceptibility to example test antibiotics that are known substrates of KPC2 or SHV12. Susceptibility Testing
Minimal Inhibitory Concentrations (MICs) were determined by the broth microdilution method in accordance with Clinical and Laboratories Institute (CLSI) guidelines. In brief, fresh overnight bacterial cultures were suspended in sterile saline, and adjusted to a 0.5 McFarland turbidity standard. Bacterial suspensions were then diluted in cation adjusted Mueller-Hinton Broth (MHB II; BBL) to yield a final inoculum of approximately 5×10^5 colony-forming units (CFU)/mL. […]

E. coli strain 25922 = assay: MIC by broth microdilution, E. coli strain 25922; type: cell-based; conditions: Escherichia coli, 25922, E. coli strain 25922; read-out: Ec 25922 (MIC)
Protocol: as §1
Minimal Inhibitory Concentrations (MICs) were determined by the broth microdilution method in accordance with Clinical and Laboratories Institute (CLSI) guidelines. In brief, fresh overnight bacterial cultures were suspended in sterile saline, and adjusted to a 0.5 McFarland turbidity standard. Bacterial suspensions were then diluted in cation adjusted Mueller-Hinton Broth (MHB II; BBL) to yield a final inoculum of approximately 5×10^5 colony-forming units (CFU)/mL. A master plate of antibiotics was prepared at a concentration equivalent to hundred-fold the highest desired final concentration in 100% dimethyl sulfoxide (DMSO). The master antibiotic plate was then diluted by serial twofold dilution with a multichannel pipette. The resulting dilution series of compounds were diluted 1:10 with sterile water leading to a 10% DMSO final concentration. A volume of 10 μL of the drug dilution series was transferred to 96-well assay plates. Assay plates were inoculated with 90 μL of bacterial suspensions and incubated at 35-37° C. for 20 hrs. The assay plates were read using a microtiter plate reader (Molecular Devices) at 600 nm as well as by visual observation with a reading mirror. The lowest concentration of the compound that prevented visible growth was recorded as the MIC. Performance of the assay was monitored by testing aztreonam against laboratory quality control strains in accordance with guidelines of the CLSI.

Row | Structure (SMILES) | MIC (E. coli containing KPC-2) [mg/L] | MIC (E. coli strain 25922) [mg/L]
1 | N=C(NCCN)NCc1cnn(C[C@@H]2[C@H](NC(=O)/C(=N\OC3(C(=O)O)CC3)c3csc(N)n3)C(=O)N2S(=O)(=O)O)n1 [Example 129, 1-(((Z)-(2-(((2R,3S)-2-((4-((3-(2-aminoethyl)guanidino)methyl)-2H-1,2,3-triazol-2-yl)methyl)-4-oxo-1-sulfoazetidin-3-yl)amino)-1-(2-aminothiazol-4-yl)-2-oxoethylidene)amino)oxy)cyclopropanecarboxylic acid] | 1 (≈ 1.63 µM) | 0.5 (≈ 0.814 µM)
2 | NC[C@@H]1CN(C[C@@H]2[C@H](NC(=O)/C(=N\OC3(C(=O)O)CC3)c3csc(N)n3)C(=O)N2S(=O)(=O)O)C(=O)O1 [Example 25, 1-(((Z)-(2-(((2R,3S)-2-(((R)-5-(aminomethyl)-2-oxooxazolidin-3-yl)methyl)-4-oxo-1-sulfoazetidin-3-yl)amino)-1-(2-aminothiazol-4-yl)-2-oxoethylidene)amino)oxy)-cyclopropanecarboxylic acid] | ≤ 0.06 | 0.125 (≈ 0.228 µM)
3 | Cc1cnn(C[C@@H]2[C@H](NC(=O)/C(=N\OC(C)(C)C(=O)O)c3csc(N)n3)C(=O)N2S(=O)(=O)O)n1 [Example 55, 2-(((Z)-(1-(2-aminothiazol-4-yl)-2-(((2R,3S)-2-((4-methyl-2H-1,2,3-triazol-2-yl)methyl)-4-oxo-1-sulfoazetidin-3-yl)amino)-2-oxoethylidene)amino)oxy)-2-methylpropanoic acid] | 4 (≈ 7.74 µM) | 16 (≈ 31 µM)
4 | N=C(NCc1cnn(C[C@@H]2[C@H](NC(=O)/C(=N\OC3(C(=O)O)CC3)c3csc(N)n3)C(=O)N2S(=O)(=O)O)n1)N1CC[C@H](N)C1 [Example 150, 1-(((Z)-(2-(((2R,3S)-2-((4-(((S)-3-aminopyrrolidine-1-carboximidamido)methyl)-2H-1,2,3-triazol-2-yl)methyl)-4-oxo-1-sulfoazetidin-3-yl)amino)-1-(2-aminothiazol-4-yl)-2-oxoethylidene)amino)oxy)cyclopropanecarboxylic acid] | 0.5 (≈ 0.78 µM) | 1 (≈ 1.56 µM)
5 | CC(C)(O/N=C(\C(=O)N[C@@H]1C(=O)N(S(=O)(=O)O)[C@@H]1Cc1cn(CCN)nn1)c1csc(N)n1)C(=O)O [Example 101, 2-(((Z)-(2-(((2R,3S)-2-((1-(2-aminoethyl)-1H-1,2,3-triazol-4-yl)methyl)-4-oxo-1-sulfoazetidin-3-yl)amino)-1-(2-aminothiazol-4-yl)-2-oxoethylidene)amino)oxy)-2-methylpropanoic acid] | 1 (≈ 1.83 µM) | 1 (≈ 1.83 µM)
6 | CC(C)(CCN)NCc1cnn(C[C@@H]2[C@H](NC(=O)/C(=N\OC3(C(=O)O)CC3)c3csc(N)n3)C(=O)N2S(=O)(=O)O)n1 [Example 132, 1-(((Z)-(2-(((2R,3S)-2-((4-(((4-amino-2-methylbutan-2-yl)amino)methyl)-2H-1,2,3-triazol-2-yl)methyl)-4-oxo-1-sulfoazetidin-3-yl)amino)-1-(2-aminothiazol-4-yl)-2-oxoethylidene)amino)oxy)cyclopropanecarboxylic acid] | 1 (≈ 1.63 µM) | 1 (≈ 1.63 µM)
7 | CC(C)(O/N=C(\C(=O)N[C@@H]1C(=O)N(S(=O)(=O)O)[C@@H]1Cn1cc(CN)nn1)c1csc(N)n1)C(=O)O [Example 44, 2-(((Z)-(2-(((2R,3S)-2-((4-(aminomethyl)-1H-1,2,3-triazol-1-yl)methyl)-4-oxo-1-sulfoazetidin-3-yl)amino)-1-(2-aminothiazol-4-yl)-2-oxoethylidene)amino)oxy)-2-methylpropanoic acid] | 1.5 (≈ 2.82 µM) | 0.67 (≈ 1.26 µM)
8 | N=C(N[C@@H]1CCNC1)c1ccc(OC[C@H](O/N=C(\C(=O)N[C@@H]2C(=O)N(S(=O)(=O)O)[C@@H]2Cn2cncn2)c2csc(N)n2)C(=O)O)cc1 [Example 73, (S)-2-(((Z)-(2-(((2R,3S)-2-((1H-1,2,4-triazol-1-yl)methyl)-4-oxo-1-sulfoazetidin-3-yl)amino)-1-(2-aminothiazol-4-yl)-2-oxoethylidene)amino)oxy)-3-(4-(N—((R)-pyrrolidin-3-yl)carbamimidoyl)phenoxy)propanoic acid] | 0.25 (≈ 0.361 µM) | 0.25 (≈ 0.361 µM)
9 | Nc1nc(/C(=N/OC2(C(=O)O)CC2)C(=O)N[C@@H]2C(=O)N(S(=O)(=O)O)[C@@H]2Cn2ncc(CN[C@H]3C[C@H](N)C3)n2)cs1 [Example 93, 1-(((Z)-(2-(((2R,3S)-2-((4-((((1 r,3R)-3-aminocyclobutyl)amino)methyl)-2H-1,2,3-triazol-2-yl)methyl)-4-oxo-1-sulfoazetidin-3-yl)amino)-1-(2-aminothiazol-4-yl)-2-oxoethylidene)amino)oxy)cyclopropanecarboxylic acid] | 0.5 (≈ 0.835 µM) | 0.25 (≈ 0.418 µM)
10 | N=C(NCc1cnn(C[C@@H]2[C@H](NC(=O)/C(=N\OC3(C(=O)O)CC3)c3csc(N)n3)C(=O)N2S(=O)(=O)O)n1)N[C@H]1C[C@H](N)C1 [Example 125, 1-(((Z)-(2-(((2R,3S)-2-((4-((3-((1 r,3R)-3-aminocyclobutyl)guanidino)methyl)-2H-1,2,3-triazol-2-yl)methyl)-4-oxo-1-sulfoazetidin-3-yl)amino)-1-(2-aminothiazol-4-yl)-2-oxoethylidene)amino)oxy)cyclopropanecarboxylic acid] | 0.5 (≈ 0.78 µM) | 0.25 (≈ 0.39 µM)
11 | C[N+](C)(C)CCCNCc1cnn(C[C@@H]2[C@H](NC(=O)/C(=N\OC3(C(=O)O)CC3)c3csc(N)n3)C(=O)N2S(=O)(=O)O)n1 [Example 123, 3-(((2-(((2R,3S)-3-((Z)-2-(2-aminothiazol-4-yl)-2-((1-carboxycyclopropoxy)imino)acetamido)-4-oxo-1-sulfoazetidin-2-yl)methyl)-2H-1,2,3-triazol-4-yl)methyl)amino)-N,N,N-trimethylpropan-1-aminium] | 0.5 | 1
12 | CC(C)(O/N=C(\C(=O)N[C@@H]1C(=O)N(S(=O)(=O)O)[C@@H]1Cn1cncn1)c1nsc(N)n1)C(=O)O [Example 16, 2-(((Z)-(2-(((2R,3S)-2-((1H-1,2,4-triazol-1-yl)methyl)-4-oxo-1-sulfoazetidin-3-yl)amino)-1-(5-amino-1,2,4-thiadiazol-3-yl)-2-oxoethylidene)amino)oxy)-2-methylpropanoic acid] | 2 (≈ 3.97 µM) | 4 (≈ 7.94 µM)
13 | CC(C)(O/N=C(\C(=O)N[C@@H]1C(=O)N(S(=O)(=O)O)[C@@H]1Cn1ccc(N)n1)c1csc(N)n1)C(=O)O [Example 34, 2-(((Z)-(2-(((2R,3S)-2-((3-amino-1H-pyrazol-1-yl)methyl)-4-oxo-1-sulfoazetidin-3-yl)amino)-1-(2-aminothiazol-4-yl)-2-oxoethylidene)amino)oxy)-2-methylpropanoic acid] | > 64 | > 64
